Experimental data taken from patent US12404244B2, “Pan-KIT kinase inhibitor having quinoline structure and application thereof” (Tarapeutics Science Inc., priority 2018, dated 2025).
Like-named read-outs stand apart in the source and are kept apart here.

Key:
[1] = tested on: TEL-cKIT/T670I-BaF3 mouse tumor model; test: Tumor-grafted mouse model established with TEL-cKIT/T670I-BaF3 cells; type: in vivo; conditions: oral, every day
Description: In this example Compound 1 and Compound 2 were respectively tested in TEL-cKIT/T670I-BaF3, TEL-cKIT/Y823D-BaF3, TEL-cKIT/D820G-BaF3 and GIST-T1-T670I mouse models.
Experimental protocols were as follows. • (1) Bal b/c female mice aged 4-6 weeks were purchased from Beijing Weitong Lihua Laboratory Animal Co., Ltd., and the mice were raised in an SPF laboratory. The drinking water and padding were sterilized by autoclaving. All operations on mice were conducted under aseptic conditions. • (2) About 5×10^6 TEL-cKIT/T670I-BaF3, TEL-cKIT/Y823D-BaF3, TEL-cKIT/D820G-BaF3 or GIST-T1-T670I cells were respectively injected subcutaneously onto the left back of all mice on Day 0. • (3) From Day 6, for the TEL-cKIT/T670I-BaF3 mouse model the corresponding mice were administrated orally every day with methylcellulose (HKI) as the vehicle (5 mice); with Compound 1 and Compound 2 at a dosage of 10 mg/kg, 20 mg/kg, 40 mg/kg, 100 mg/kg mouse weight (5 mice in each group); and with Sunitnib (purchased from MedChemExpress, China) at a dosage of 40 mg/kg mouse weight (5 mice). From day 6, for the TEL-cKIT/Y823D-BaF3 and TEL-cKIT/D820G-BaF3 mouse models the corresponding mice were administrated orally every day with methylcellulose (HKI) as the vehicle (5 mice); with Compound 1 and Compound 2 at a dosage of 40 mg/kg, 80 mg/kg mouse weight (5 mice in each group); and with Sunitnib (purchased from MedChemExpress, China) at a dosage of 40 mg/kg mouse weight (5 mice). From day 15, for the GIST-T1-T670I mouse model the corresponding mice were administrated orally every day with methylcellulose (HKI) as the vehicle (5 mice); with Compound 1 and Compound 2 at a dosage of 20 mg/kg, 40 mg/kg, 80 mg/kg mouse weight (5 mice in each group); and with Sunitnib at a dosage of 40 mg/kg mouse weight (5 mice). • (4) From day 6 (TEL-cKIT/T670I-BaF3, TEL-cKIT/Y823D-BaF3, TEL-cKIT/D820G-BaF3 mouse model) and From day 15 (GIST-T1-T670I mouse model), respectively, the length/width of the subcutaneous tumor were measured with a vernier caliper every day and the body weight of the mouse was recorded every day so as to determine the effects of Compound 1 and Compound 2 on the body weight and tumor size of the mice, respectively. • (5) The mice were sacrificed on Day 11 after administration for the TEL-cKIT/T670I-BaF3 mouse model, on Day 9 after administration for the TEL-cKIT/Y823D-BaF3 and TEL-cKIT/D820G-BaF3 mouse models, and on Day 28 after administration for the GIST-T1-T670I mouse model. The subcutaneous tumors were taken out, and the tumors were weighed and compared. • (6) The growth trend of subcutaneous tumors was calculated and the tumor size was calculated according to: length×width×width/2 mm^3.

BaF3 = test: Proliferation of parental BaF3 cells (CCK-8); type: cell-based, mouse; conditions: Mus musculus, read-out: GI50 BaF3
Description: Compounds as provided herein were further evaluated for their inhibitory effects on proliferation of cancer cells by testing their effects on growth of cancer cells. In this example the following cells were used: primary mouse B cells BaF3 (purchased from ATCC), GIST-T1 cells of the human gastrointestinal stromal tumor cell line (expressing wild-type KIT gene) (purchased from Cosmo Bio Co., Ltd. (Japan)). The present lab further constructed and used the following: mouse Tel-Kit-BaF3 (stably expressing KIT wild-type kinase), mouse Tel-Kit/T670I-BaF3 (stably expressing KIT T670I mutant kinase), mouse Tel-Kit/V559A-BaF3 (stably expressing KIT V559A mutant kinase), mouse Tel-Kit/V559D-BaF3 (stably expressing KIT V559D mutant kinase), mouse Tel-Kit/V559G-BaF3 (stably expressing KIT V559G mutant kinase), mouse Tel-Kit/V560D-BaF3 (stably expressing KIT V560D mutant kinase), mouse Tel-Kit/L576P-BaF3 (stably expressing KIT L576P mutant kinase), mouse Tel-Kit/V654A-BaF3 (stably expressing KIT V654A mutant kinase), mouse Tel-Kit/V654A/V559D-BaF3 (stably expressing KIT V654A V559D mutant kinase), mouse Tel-Kit/T670E-BaF3 (stably expressing KIT T670E mutant kinase), mouse Tel-Kit/T670I/V559D-BaF3 (stably expressing KIT T670I V559D mutant kinase), mouse Tel-Kit/S709F-BaF3 (stably expressing KIT S709F mutant kinase), mouse Tel-Kit/D816E-BaF3 (stably expressing KIT D816E mutant kinase), mouse Tel-Kit/D816H-BaF3 (stably expressing KIT D816H mutant kinase), mouse Tel-Kit/D820E-BaF3 (stably expressing KIT D820E mutant kinase), mouse Tel-Kit/D820G-BaF3 (stably expressing KIT D820G mutant kinase), mouse Tel-Kit/D820Y-BaF3 (stably expressing KIT D820Y mutant kinase), mouse Tel-Kit/N822K-BaF3 (stably expressing KIT N822K mutant kinase), mouse Tel-Kit/Y823D-BaF3 (stably expressing KIT Y823D mutant kinase), mouse Tel-Kit/A829P-BaF3 (stably expressing KIT A829P mutant kinase), GIST-T1-T670I cells of the human gastrointestinal stromal tumor cell line (expressing KIT-T670I mutant gene). The above cell lines were constructed by: amplifying respectively the sequences of human KIT and various mutant kinase regions of KIT via PCR, inserting the fragments respectively into MSCV-Puro vectors having a N-terminal TEL fragment and/or a NPM fragment and/or a TPR fragment (purchased from Clontech), transfecting mouse BaF3 cells with the vectors by means of retrovirus to obtain stably transfected cells, removing the growth factor IL-3, and thereby eventually obtaining cell lines that depend on the transferred protein KIT or various mutants of KIT. The GIST-T1-T670I (expressing C-KIT-T670I mutant gene) cell line was constructed by our laboratory as follows: designing sgRNA that targeted a region around T670 of the KIT gene with CRISPR Design Tool (website: crispr.mit.edu, Zhang Feng Lab), cloning it into pSpCas9(BB)-2A-Puro vector; co-transfecting cells with the resultant vector and a single-stranded oligonucleotide having T670I site mutation that is near to T670, subjecting the resultant to antibiotics screening, followed by dilution, and monocellular culture in a 96-well plate; validating the site T670 of the cells by sequence detection via Sanger sequencing.
The cells after incubation were detected using CCK-8 (purchased from MedChem Express, Shanghai, China) cell viability assay kit (CCK-8 may be reduced by dehydrogenase in living cells to a highly water-soluble yellow formazan product, and the amount of the resultant formazan is proportional to the number of living cells), the number of living cells were quantified with a microplate reader, and GI50 of the compounds and the control compounds were calculated (the results shown in Table 2 and Table 3).

| Structure (SMILES) | inhibitory effects against tumor in mice ([1]; 40 mg/kg) | influence on mice weight [1] | GI50 (BaF3; BaF3, 72 h) [µM] | tumor inhibition rate ([1]; 40 mg/kg) [%] | GI50 (BaF3; BaF3 parent cells, 72 hours, CCK-8) [µM] |
| --- | --- | --- | --- | --- | --- |
| COc1cc2nccc(Oc3ccc(NC(=O)Cc4ccc(C)c(C(F)(F)F)c4)cc3)c2cc1OC [Example 1, N-(4-((6,7-dimethoxyquinolin-4-yl)oxy)phenyl)-2-(4-methyl-3-(trifluoromethyl)phenyl)acetamide] | excellent inhibitory effects against tumor in mice | without significant influence on mice weight | 7.26 | – | – |
| COc1cc2nccc(Oc3ccc(NC(=O)Cc4ccc(Cl)c(C(F)(F)F)c4)cc3)c2cc1OC [Example 2, N-(4-((6,7-dimethoxyquinolin-4-yl)oxy)phenyl)-2-(4-chloro-3-(trifluoromethyl)phenyl)-acetamide] | excellent inhibitory effects against tumor in mice | without significant influence on mice weight | – | ≥ 80 | 5.97 |
